From PubChem BioAssay AID2060360 (Molecular Pharmacology Branch, DTP, NCI, 2025)

Test system: 282377-053-R-J1-PDC tumor spheroids, viability
Assay: Anticancer human tumor 282377-053-R-J1-PDC patient-derived colon adenocarcinoma cell line growth inhibition [TAK]
Conditions: spheroids with HUVEC and MSC; for IC50: curve of first compound; for viability, T/C: stronger effect = lower value
Summary of the method: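 Drug combinations, each paired with TAK-243 or ipatasertib, were tested on multi-cell spheroids of 60% malignant cells, 25% HUVEC and 15% hMSC. Top concentrations were at or near the clinical Cmax (10 microM if undetermined), decreasing by half-log; viability is given as % test/control.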

[1] = second compound 0.3 µM, first compound 0.000316 µM
[2] = second compound 0.3 µM, first compound 0.001 µM
[3] = second compound 0.3 µM, first compound 0.00316 µM
[4] = second compound 0.3 µM, first compound 0.01 µM
[5] = second compound 0.3 µM, first compound 0.0316 µM
[6] = second compound 0.3 µM, first compound 0.1 µM
[7] = second compound 0.949 µM, first compound 0.000316 µM
[8] = second compound 0.949 µM, first compound 0.001 µM
[9] = second compound 0.949 µM, first compound 0.00316 µM
[10] = second compound 0.949 µM, first compound 0.01 µM
[11] = second compound 0.949 µM, first compound 0.0316 µM
[12] = second compound 0.949 µM, first compound 0.1 µM
[13] = second compound 3 µM, first compound 0.000316 µM
[14] = second compound 3 µM, first compound 0.001 µM
[15] = second compound 3 µM, first compound 0.00316 µM
[16] = second compound 3 µM, first compound 0.01 µM
[17] = second compound 3 µM, first compound 0.0316 µM
[18] = second compound 3 µM, first compound 0.1 µM
[19] = second compound 9.49 µM, first compound 0.000316 µM
[20] = second compound 9.49 µM, first compound 0.001 µM
[21] = second compound 9.49 µM, first compound 0.00316 µM
[22] = second compound 9.49 µM, first compound 0.01 µM
[23] = second compound 9.49 µM, first compound 0.0316 µM
[24] = second compound 9.49 µM, first compound 0.1 µM
[25] = second compound 30 µM, first compound 0.000316 µM
[26] = second compound 30 µM, first compound 0.001 µM
[27] = second compound 30 µM, first compound 0.00316 µM
[28] = second compound 30 µM, first compound 0.01 µM
[29] = second compound 30 µM, first compound 0.0316 µM
[30] = second compound 30 µM, first compound 0.1 µM
[31] = second compound 0.3 µM, first compound 0.316 µM
[32] = second compound 0.3 µM, first compound 1 µM
[33] = second compound 0.3 µM, first compound 3.16 µM
[34] = second compound 0.3 µM, first compound 10 µM
[35] = second compound 0.949 µM, first compound 0.316 µM
[36] = second compound 0.949 µM, first compound 1 µM
[37] = second compound 0.949 µM, first compound 3.16 µM
[38] = second compound 0.949 µM, first compound 10 µM
[39] = second compound 3 µM, first compound 0.316 µM
[40] = second compound 3 µM, first compound 1 µM
[41] = second compound 3 µM, first compound 3.16 µM
[42] = second compound 3 µM, first compound 10 µM
[43] = second compound 9.49 µM, first compound 0.316 µM
[44] = second compound 9.49 µM, first compound 1 µM
[45] = second compound 9.49 µM, first compound 3.16 µM
[46] = second compound 9.49 µM, first compound 10 µM
[47] = second compound 30 µM, first compound 0.316 µM
[48] = second compound 30 µM, first compound 1 µM
[49] = second compound 30 µM, first compound 3.16 µM
[50] = second compound 30 µM, first compound 10 µM
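Further: spheroids exposed to drugs for seven days before readout.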

SMILES: CC(C)CC(NC(=O)CNC(=O)c1cc(Cl)ccc1Cl)B1OC(=O)CC(CC(=O)O)(C(=O)O)O1 (stereo not given) + CC(C)NCC(C(=O)N1CCN(c2ncnc3c2C(C)CC3O)CC1)c1ccc(Cl)cc1
- IC50 (second compound 0.3 µM): 53.8 nM
- IC50 (second compound 0.949 µM): 47.9 nM
- IC50 (second compound 3 µM): 43.8 nM
- IC50 (second compound 9.49 µM): 39.3 nM
- IC50 (second compound 30 µM): 36.3 nM
- viability, T/C [1]: 99.5%
- viability, T/C [2]: 93.9%
- viability, T/C [3]: 94.3%
- viability, T/C [4]: 92.7%
- viability, T/C [5]: 89.7%
- viability, T/C [6]: 3.57%
- viability, T/C [7]: 100%
- viability, T/C [8]: 88.3%
- viability, T/C [9]: 87.1%
- viability, T/C [10]: 94.5%
- viability, T/C [11]: 77.1%
- viability, T/C [12]: 1.73%
- viability, T/C [13]: 82.4%
- viability, T/C [14]: 87.8%
- viability, T/C [15]: 84.2%
- viability, T/C [16]: 84.5%
- viability, T/C [17]: 69.2%
- viability, T/C [18]: 1.39%
- viability, T/C [19]: 81.3%
- viability, T/C [20]: 79.3%
- viability, T/C [21]: 81.7%
- viability, T/C [22]: 77.5%
- viability, T/C [23]: 61.5%
- viability, T/C [24]: 1.53%
- viability, T/C [25]: 70.2%
- viability, T/C [26]: 74.6%
- viability, T/C [27]: 67.7%
- viability, T/C [28]: 66.8%
- viability, T/C [29]: 57.3%
- viability, T/C [30]: 0.99%

SMILES: CC(C)(C)c1nc(-c2cccc(NS(=O)(=O)c3c(F)cccc3F)c2F)c(-c2ccnc(N)n2)s1 + CC(C)NCC(C(=O)N1CCN(c2ncnc3c2C(C)CC3O)CC1)c1ccc(Cl)cc1
- IC50 (second compound 0.3 µM): > 10000 nM
- IC50 (second compound 0.949 µM): > 10000 nM
- IC50 (second compound 3 µM): > 10000 nM
- IC50 (second compound 9.49 µM): > 10000 nM
- IC50 (second compound 30 µM): 437 nM
- viability, T/C [5]: 83.5%
- viability, T/C [6]: 81%
- viability, T/C [31]: 79.3%
- viability, T/C [32]: 72%
- viability, T/C [33]: 71.3%
- viability, T/C [34]: 63.7%
- viability, T/C [11]: 78.4%
- viability, T/C [12]: 79.7%
- viability, T/C [35]: 71.9%
- viability, T/C [36]: 66.5%
- viability, T/C [37]: 59.6%
- viability, T/C [38]: 57.5%
- viability, T/C [17]: 77.7%
- viability, T/C [18]: 74.8%
- viability, T/C [39]: 69.9%
- viability, T/C [40]: 58.8%
- viability, T/C [41]: 54.4%
- viability, T/C [42]: 53.6%
- viability, T/C [23]: 71.6%
- viability, T/C [24]: 72.4%
- viability, T/C [43]: 65.5%
- viability, T/C [44]: 51.2%
- viability, T/C [45]: 47.5%
- viability, T/C [46]: 52.8%
- viability, T/C [29]: 60%
- viability, T/C [30]: 58.4%
- viability, T/C [47]: 54.6%
- viability, T/C [48]: 36.1%
- viability, T/C [49]: 35.7%
- viability, T/C [50]: 42.6%

SMILES: CCCS(=O)(=O)Nc1ccc(F)c(C(=O)c2c[nH]c3ncc(-c4ccc(Cl)cc4)cc23)c1F + CC(C)NCC(C(=O)N1CCN(c2ncnc3c2C(C)CC3O)CC1)c1ccc(Cl)cc1
- IC50 (second compound 0.3 µM): 7810 nM
- IC50 (second compound 0.949 µM): 6860 nM
- IC50 (second compound 3 µM): 7560 nM
- IC50 (second compound 9.49 µM): 5950 nM
- IC50 (second compound 30 µM): 2990 nM
- viability, T/C [31]: 79.5%
- viability, T/C [32]: 79.8%
- viability, T/C [33]: 82.6%
- viability, T/C [34]: 24.6%
- viability, T/C (second compound 0.3 µM, first compound 31.6 µM): 1.89%
- viability, T/C (second compound 0.3 µM, first compound 100 µM): 98.5%
- viability, T/C [35]: 76.7%
- viability, T/C [36]: 79.9%
- viability, T/C [37]: 84.2%
- viability, T/C [38]: 7.58%
- viability, T/C (second compound 0.949 µM, first compound 31.6 µM): 2.94%
- viability, T/C (second compound 0.949 µM, first compound 100 µM): 95.3%
- viability, T/C [39]: 76.8%
- viability, T/C [40]: 73.7%
- viability, T/C [41]: 80.5%
- viability, T/C [42]: 33.4%
- viability, T/C (second compound 3 µM, first compound 31.6 µM): 1.38%
- viability, T/C (second compound 3 µM, first compound 100 µM): 89.3%
- viability, T/C [43]: 72.4%
- viability, T/C [44]: 70.1%
- viability, T/C [45]: 71.3%
- viability, T/C [46]: 10.9%
- viability, T/C (second compound 9.49 µM, first compound 31.6 µM): 10.1%
- viability, T/C (second compound 9.49 µM, first compound 100 µM): 76.7%
- viability, T/C [47]: 57.4%
- viability, T/C [48]: 61%
- viability, T/C [49]: 49.5%
- viability, T/C [50]: 9.48%
- viability, T/C (second compound 30 µM, first compound 31.6 µM): 0.93%
- viability, T/C (second compound 30 µM, first compound 100 µM): 46.8%

SMILES: CC(C)CC(NC(=O)C(Cc1ccccc1)NC(=O)c1cnccn1)B(O)O (stereo not given) + CC(C)NCC(C(=O)N1CCN(c2ncnc3c2C(C)CC3O)CC1)c1ccc(Cl)cc1
- IC50 (second compound 0.3 µM): > 10 nM
- IC50 (second compound 0.949 µM): > 10 nM
- IC50 (second compound 3 µM): > 10 nM
- IC50 (second compound 9.49 µM): 7.5 nM
- IC50 (second compound 30 µM): 7.96 nM
- viability, T/C (second compound 0.3 µM, first compound 31.6 pM): 105%
- viability, T/C (second compound 0.3 µM, first compound 0.0001 µM): 96%
- viability, T/C [1]: 97.5%
- viability, T/C [2]: 98.3%
- viability, T/C [3]: 98.5%
- viability, T/C [4]: 80.8%
- viability, T/C (second compound 0.949 µM, first compound 31.6 pM): 93%
- viability, T/C (second compound 0.949 µM, first compound 0.0001 µM): 90.7%
- viability, T/C [7]: 92.5%
- viability, T/C [8]: 101%
- viability, T/C [9]: 93.1%
- viability, T/C [10]: 56.5%
- viability, T/C (second compound 3 µM, first compound 31.6 pM): 90.2%
- viability, T/C (second compound 3 µM, first compound 0.0001 µM): 84.2%
- viability, T/C [13]: 87.7%
- viability, T/C [14]: 86.6%
- viability, T/C [15]: 78.8%
- viability, T/C [16]: 51.1%
- viability, T/C (second compound 9.49 µM, first compound 31.6 pM): 83.2%
- viability, T/C (second compound 9.49 µM, first compound 0.0001 µM): 83.7%
- viability, T/C [19]: 83.8%
- viability, T/C [20]: 79.9%
- viability, T/C [21]: 78.6%
- viability, T/C [22]: 40.6%
- viability, T/C (second compound 30 µM, first compound 31.6 pM): 69.2%
- viability, T/C (second compound 30 µM, first compound 0.0001 µM): 71.3%
- viability, T/C [25]: 72.7%
- viability, T/C [26]: 68.5%
- viability, T/C [27]: 65.3%
- viability, T/C [28]: 46.2%
